The target of the test is T1, KOD DNA Polymerase (Thermococcus kodakarensis, UniProt P77933, DEL407-766/DEL852-1388).
T1 construct: purchased TOYOBO CO., LTD
Put plainly: PCR with KOD DNA Polymerase (α-type) in the presence of acidic substances. Type of test: biochemical, Pyrococcus sp. The conditions noted are these: 10 kb fragment, 100 pg λDNA, 30 cycles 98°C 5 s–68°C 3 min. As for the experimental part:
(1) Using sodium alginate, sodium hyaluronate (manufactured by Seikagaku Kogyo), or κ carrageenan (manufactured by Sigma), the effects of these acidic substances on α-type DNA polymerase were examined. A reaction mixture comprising λDNA as a template, primers λ1 and λ8 as a primer pair, and KOD DNA Polymerase (manufactured by TOYOBO CO., LTD.) as DNA polymerase was prepared, and PCR was carried out. The composition of the reaction mixture is as follows. Composition of Reaction Mixture: KOD DNA Polymerase Buffer I (manufactured by TOYOBO CO., LTD.) 0.2 mM each of dATP, dCTP, dGTP and dTTP, 0.625 U of KOD DNA Polymerase, 100 pg of λDNA, and 5 pmol each of primers λ1 and λ8 (a final volume being 25 μl). Further, 1 μg or 2.5 μg of sodium alginate, 0.1 μg or 0.5 μg of sodium hyaluronate, or 0.1 μg or 0.25 μg of κ carrageenan was respectively added to the above reaction mixture.
The reaction in 30 cycles was carried out for each of these reaction mixtures, wherein one cycle of reaction comprises a process consisting of 98° C., 5 seconds—68° C., 3 minutes. Thereafter, 5 μl of the resulting reaction mixture was subjected to electrophoresis on 1% agarose gel containing ethidium bromide in an amount of 0.00005%, whereby an amplified fragment was confirmed.
(2) The effects on α-type DNA polymerase were also examined in the same manner as in item (1) above for sodium alginate, κ carrageenan, sodium heparan sulfate (manufactured by Sigma), sodium dermatan sulfate (manufactured by Sigma), potassium polyvinyl sulfate (manufactured by nacalaitesque) or sodium polystyrenesulfonate (two kinds: average molecular weights of 5,400 and 35,000, all manufactured by nacalaitesque). A reaction mixture comprising λDNA as a template, primers λ1 and λ8 as a primer pair, and KOD DNA Polymerase as DNA polymerase was prepared, and PCR was carried out. The composition of the reaction mixture is as follows. Composition of Reaction Mixture: KOD DNA Polymerase Buffer II (manufactured by TOYOBO CO., LTD.) 0.2 mM each of dATP, dCTP, dGTP and dTTP, 1.25 U of KOD DNA Polymerase, 100 pg of λDNA, and 10 pmol each of primers λ1 and λ8 (a final volume being 50 μl). Further, 2.5 μg or 5 μg of sodium alginate, 0.25 μg or 0.5 μg of κ carrageenan, or 125 ng, 250 ng or 375 ng of sodium dermatan sulfate, 500 ng of sodium heparan sulfate, 10 ng of potassium polyvinyl sulfate, 2.5 ng or 5 ng of sodium polystyrenesulfonate (average molecular weight: 5,400), or 5 ng of sodium polystyrenesulfonate (average molecular weight: 35,000) was respectively added to the above reaction mixture.

[1] abbreviates: Buffer I, 0.625 U KOD, primers λ1/λ8, 25 μl, amount added 0.1 μg.

T1 sequence (P77933 other isoform, or with tags, fused parts or gaps DEL407-766/DEL852-1388): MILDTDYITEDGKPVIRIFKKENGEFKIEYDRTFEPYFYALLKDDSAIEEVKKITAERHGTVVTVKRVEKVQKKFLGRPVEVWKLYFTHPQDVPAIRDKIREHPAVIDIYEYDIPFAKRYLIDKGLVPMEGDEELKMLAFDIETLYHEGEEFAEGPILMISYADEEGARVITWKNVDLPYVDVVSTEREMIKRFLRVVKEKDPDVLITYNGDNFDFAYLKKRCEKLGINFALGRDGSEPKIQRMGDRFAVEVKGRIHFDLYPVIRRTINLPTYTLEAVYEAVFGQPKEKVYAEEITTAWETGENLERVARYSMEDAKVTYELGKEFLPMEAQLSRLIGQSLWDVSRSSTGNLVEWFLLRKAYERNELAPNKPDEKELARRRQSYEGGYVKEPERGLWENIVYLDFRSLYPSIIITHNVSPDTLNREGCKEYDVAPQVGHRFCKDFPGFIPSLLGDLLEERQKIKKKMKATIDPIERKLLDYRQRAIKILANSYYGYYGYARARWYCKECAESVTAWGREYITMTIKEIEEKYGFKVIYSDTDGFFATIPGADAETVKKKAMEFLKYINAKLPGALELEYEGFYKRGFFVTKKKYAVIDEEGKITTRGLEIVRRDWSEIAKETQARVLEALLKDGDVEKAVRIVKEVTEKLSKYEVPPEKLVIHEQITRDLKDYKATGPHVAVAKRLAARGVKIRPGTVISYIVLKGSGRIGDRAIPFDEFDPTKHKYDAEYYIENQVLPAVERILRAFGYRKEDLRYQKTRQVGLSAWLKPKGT

With sodium hyaluronate, the “Amplification Results” value is “+ (Amplification being observed)” under setting [1] and “+ (Amplification being observed)” (Buffer I, 0.625 U KOD, primers λ1/λ8, 25 μl, amount added 0.5 μg).
For κ carrageenan, the “Amplification Results” value by setting is: under setting [1], “+ (Amplification being observed)”; (Buffer I, 0.625 U KOD, primers λ1/λ8, 25 μl, amount added 0.25 μg) “+ (Amplification being observed)”; (Buffer II, 1.25 U KOD, primers λ1/λ8, 50 μl, amount added 0.25 μg) “++ (Intensive amplification being observed)”; (Buffer II, 1.25 U KOD, primers λ1/λ8, 50 μl, amount added 0.5 μg) “++ (Intensive amplification being observed)”.
Consider sodium dermatan sulfate, for which the “Amplification Results” value (Buffer II, 1.25 U KOD, primers λ1/λ8, 50 μl, amount added 125 ng) was “+ (Amplification being observed)”; the “Amplification Results” value (Buffer II, 1.25 U KOD, primers λ1/λ8, 50 μl, amount added 250 ng) is “+ (Amplification being observed)”; the “Amplification Results” value (Buffer II, 1.25 U KOD, primers λ1/λ8, 50 μl, amount added 375 ng) is reported as “+ (Amplification being observed)”.
For sodium heparan sulfate, for the setting “Buffer II, 1.25 U KOD, primers λ1/λ8, 50 μl, amount added 500 ng”, the “Amplification Results” value is reported as “+ (Amplification being observed)”.

Values taken from patent US8367328B2, “Method for synthesizing DNA” (Takara Bio Inc., priority 1998, dated 2013).
